Measurements published in patent publication US7279187B2, “Mineral fortification systems” (The Procter & Gamble Company, priority 2003, dated 2007).

Assay: Colour development of iron source when added to water or other aqueous solutions
Type: physicochemical
Text: Such a color can change the color appearance the food or beverage to which FERROCHEL has been added. In the case of many foods and beverages, this color change would be unacceptable.

NCC(=O)[O-].NCC(=O)[O-].[Fe+2] [FERROCHEL]
Colour imparted when added to water: imparts relatively quickly a deep rusty yellow color
